Experimental data published in ChEMBL document CHEMBL3217456 (Medchemcomm, 2014).
Calls of active or inactive are those of the source. The calls are words filed in the database; no cut-off is given here.

Tests used:
[1] = target: Histamine H1 receptor (Homo sapiens) (UniProt P35367); experiment: Antagonist activity at human recombinant histamine H1 receptor expressed in Sf9 cells coexpressing RGS4 assessed as inhibition of histamine-induced […] hydrolysis preincubated for 2 mins before [gamma32P]GTP addition measured after 20 mins by steady-state GTPase activity assay; assay type: functional
Sequence of Histamine H1 receptor (Homo sapiens) (P35367 whole entry, the tested form may be a part): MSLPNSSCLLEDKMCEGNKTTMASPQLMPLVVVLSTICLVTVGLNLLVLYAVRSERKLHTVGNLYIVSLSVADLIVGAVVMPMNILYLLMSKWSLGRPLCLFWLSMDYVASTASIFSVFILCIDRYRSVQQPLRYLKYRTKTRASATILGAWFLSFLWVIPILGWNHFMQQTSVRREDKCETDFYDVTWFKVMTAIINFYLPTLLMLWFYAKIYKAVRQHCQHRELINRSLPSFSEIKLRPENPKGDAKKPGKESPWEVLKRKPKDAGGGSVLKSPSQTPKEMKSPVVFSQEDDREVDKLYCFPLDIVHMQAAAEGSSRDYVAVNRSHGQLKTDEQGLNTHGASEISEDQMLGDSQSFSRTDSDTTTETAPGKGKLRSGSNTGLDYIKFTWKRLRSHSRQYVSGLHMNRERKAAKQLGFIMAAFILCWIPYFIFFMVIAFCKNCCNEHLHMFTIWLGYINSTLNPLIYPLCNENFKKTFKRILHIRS

Histamine H4 receptor [2] = target: T1, Histamine H4 receptor (Homo sapiens, UniProt Q9H3N8); experiment: Antagonist activity at human recombinant histamine H4 receptor-RGS19 fusion protein expressed in Sf9 cells coexpressing Galphai2,Gbeta1gamma2 assessed as inhibition of histamine-induced [35S]GTPgammaS binding after 90 mins by liquid scintillation counting; assay type: functional
T1 sequence (Q9H3N8 whole entry, the tested form may be a part): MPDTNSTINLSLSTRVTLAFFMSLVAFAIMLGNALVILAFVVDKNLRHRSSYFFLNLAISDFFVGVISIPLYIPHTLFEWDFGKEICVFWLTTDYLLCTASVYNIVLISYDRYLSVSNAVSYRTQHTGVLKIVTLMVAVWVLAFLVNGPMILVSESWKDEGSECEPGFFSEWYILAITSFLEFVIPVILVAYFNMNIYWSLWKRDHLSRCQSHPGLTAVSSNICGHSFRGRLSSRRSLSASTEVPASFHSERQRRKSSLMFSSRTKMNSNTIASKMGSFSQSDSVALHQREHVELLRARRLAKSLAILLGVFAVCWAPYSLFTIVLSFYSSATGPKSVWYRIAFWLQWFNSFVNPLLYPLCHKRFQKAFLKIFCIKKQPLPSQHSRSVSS

Histamine H4 receptor [3] = target: T1, Histamine H4 receptor; experiment: Intrinsic activity at human recombinant histamine H4 receptor-RGS19 fusion protein expressed in Sf9 cells coexpressing Galphai2,Gbeta1gamma2 assessed as [35S]GTPgammaS binding at 10 uM after 90 mins by liquid scintillation counting relative to histamine; assay type: functional
Histamine H3 receptor [4] = target: T2, Histamine H3 receptor (Homo sapiens, UniProt Q9Y5N1); experiment: Antagonist activity at human recombinant histamine H3 receptor expressed in Sf9 cells coexpressing Galphai2,Gbeta1gamma2 and RGS4 assessed as inhibition of histamine-induced [35S]GTPgammaS binding after 90 mins by liquid scintillation counting; assay type: functional
T2 sequence (Q9Y5N1 whole entry): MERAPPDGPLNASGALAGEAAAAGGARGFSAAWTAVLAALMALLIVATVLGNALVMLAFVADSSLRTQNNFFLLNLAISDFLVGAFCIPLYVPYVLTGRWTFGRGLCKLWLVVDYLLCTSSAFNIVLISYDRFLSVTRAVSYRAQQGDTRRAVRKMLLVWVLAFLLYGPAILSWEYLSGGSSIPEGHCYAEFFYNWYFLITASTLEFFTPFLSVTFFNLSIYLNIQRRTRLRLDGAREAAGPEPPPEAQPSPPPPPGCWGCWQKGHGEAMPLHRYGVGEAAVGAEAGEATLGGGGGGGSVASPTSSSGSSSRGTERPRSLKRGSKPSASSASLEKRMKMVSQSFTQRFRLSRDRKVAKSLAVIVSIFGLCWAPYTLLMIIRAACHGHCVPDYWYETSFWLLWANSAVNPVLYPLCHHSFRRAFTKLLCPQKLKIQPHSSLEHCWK

Histamine H3 receptor [5] = target: T2, Histamine H3 receptor; experiment: Intrinsic activity at human recombinant histamine H3 receptor expressed in Sf9 cells coexpressing Galphai2,Gbeta1gamma2 and RGS4 assessed as [35S]GTPgammaS binding at 10 uM after 90 mins by liquid scintillation counting relative to histamine; assay type: functional
Histamine H2 receptor [6] = target: T3, Histamine H2 receptor (Homo sapiens, UniProt P25021); experiment: Agonist activity at human recombinant histamine H2 receptor-Gsalphas fusion protein expressed in Sf9 cells assessed as [35S]GTPgammaS binding after 90 mins by liquid scintillation counting; assay type: functional
T3 sequence (P25021 whole entry, the tested form may be a part): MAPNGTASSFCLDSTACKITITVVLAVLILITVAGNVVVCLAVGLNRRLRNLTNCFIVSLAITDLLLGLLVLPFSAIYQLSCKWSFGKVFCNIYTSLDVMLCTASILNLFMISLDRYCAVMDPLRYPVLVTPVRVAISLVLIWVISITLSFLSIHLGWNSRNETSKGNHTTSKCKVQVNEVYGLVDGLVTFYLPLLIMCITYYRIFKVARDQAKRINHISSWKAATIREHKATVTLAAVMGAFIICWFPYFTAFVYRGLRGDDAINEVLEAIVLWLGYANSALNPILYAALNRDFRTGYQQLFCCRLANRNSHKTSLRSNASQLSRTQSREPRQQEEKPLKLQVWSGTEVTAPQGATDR

[7] = target: Histamine H1 receptor (Homo sapiens) (UniProt P35367); experiment: Intrinsic activity at human recombinant histamine H1 receptor expressed in Sf9 cells coexpressing RGS4 preincubated for 2 mins before [gamma32P]GTP addition measured after 20 mins by steady-state GTPase activity assay relative to histamine
[8] = target: Histamine H1 receptor (Homo sapiens) (UniProt P35367); conditions: Sf9
Histamine H4 receptor [9] = target: T1, Histamine H4 receptor; experiment: Intrinsic activity at human recombinant histamine H4 receptor-RGS19 fusion protein expressed in Sf9 cells coexpressing Galphai2,Gbeta1gamma2 preincubated for 2 mins before [gamma32P]GTP addition measured after 20 mins by steady-state GTPase activity assay relative to histamine
Histamine H4 receptor [10] = target: T1, Histamine H4 receptor; experiment: Antagonist activity at human recombinant histamine H4 receptor-RGS19 fusion protein expressed in Sf9 cells coexpressing Galphai2,Gbeta1gamma2 assessed as inhibition of histamine-induced […] hydrolysis preincubated for 2 mins before [gamma32P]GTP addition measured after 20 mins by steady-state GTPase activity assay; assay type: functional
Histamine H3 receptor [11] = target: T2, Histamine H3 receptor; experiment: Antagonist activity at human recombinant histamine H3 receptor expressed in Sf9 cells coexpressing Galphai2,Gbeta1gamma2 and RGS4 assessed as inhibition of histamine-induced […] hydrolysis preincubated for 2 mins before [gamma32P]GTP addition measured after 20 mins by steady-state GTPase activity assay; assay type: functional
Histamine H2 receptor [12] = target: T3, Histamine H2 receptor; experiment: Intrinsic activity at human recombinant histamine H2 receptor-Gsalphas fusion protein expressed in Sf9 cells preincubated for 2 mins before [gamma32P]GTP addition measured after 20 mins by steady-state GTPase activity assay relative to histamine
Histamine H3 receptor [13] = target: T2, Histamine H3 receptor; experiment: Intrinsic activity at human recombinant histamine H3 receptor expressed in Sf9 cells coexpressing Galphai2,Gbeta1gamma2 and RGS4 preincubated for 2 mins before [gamma32P]GTP addition measured after 20 mins by steady-state GTPase activity assay relative to histamine
Histamine H2 receptor [14] = target: T3, Histamine H2 receptor; experiment: Antagonist activity at human recombinant histamine H2 receptor-Gsalphas fusion protein expressed in Sf9 cells assessed as inhibition of histamine-induced […] hydrolysis preincubated for 2 mins before [gamma32P]GTP addition measured after 20 mins by steady-state GTPase activity assay; assay type: functional
Histamine H2 receptor [15] = target: T3, Histamine H2 receptor; experiment: Intrinsic activity at human recombinant histamine H2 receptor-Gsalphas fusion protein expressed in Sf9 cells assessed as [35S]GTPgammaS binding at 10 uM after 90 mins by liquid scintillation counting relative to histamine; assay type: functional
Histamine H2 receptor [16] = target: T3, Histamine H2 receptor; experiment: Antagonist activity at human recombinant histamine H2 receptor-Gsalphas fusion protein expressed in Sf9 cells assessed as inhibition of histamine-induced [35S]GTPgammaS binding after 90 mins by liquid scintillation counting; assay type: functional
Histamine H3 receptor [17] = target: T2, Histamine H3 receptor; experiment: Agonist activity at human recombinant histamine H3 receptor expressed in Sf9 cells coexpressing Galphai2,Gbeta1gamma2 and RGS4 assessed as [35S]GTPgammaS binding after 90 mins by liquid scintillation counting; assay type: functional
Histamine H4 receptor [18] = target: T1, Histamine H4 receptor; experiment: Agonist activity at human recombinant histamine H4 receptor-RGS19 fusion protein expressed in Sf9 cells coexpressing Galphai2,Gbeta1gamma2 assessed as [35S]GTPgammaS binding after 90 mins by liquid scintillation counting; assay type: functional
[19] = target: Histamine H2 receptor (Cavia porcellus) (UniProt P47747); experiment: Antagonist activity at guinea pig histamine H2 receptor assessed as reduction of histamine-induced maximal response after 30 mins
Sequence of Histamine H2 receptor (Cavia porcellus) (P47747 whole entry, the tested form may be a part): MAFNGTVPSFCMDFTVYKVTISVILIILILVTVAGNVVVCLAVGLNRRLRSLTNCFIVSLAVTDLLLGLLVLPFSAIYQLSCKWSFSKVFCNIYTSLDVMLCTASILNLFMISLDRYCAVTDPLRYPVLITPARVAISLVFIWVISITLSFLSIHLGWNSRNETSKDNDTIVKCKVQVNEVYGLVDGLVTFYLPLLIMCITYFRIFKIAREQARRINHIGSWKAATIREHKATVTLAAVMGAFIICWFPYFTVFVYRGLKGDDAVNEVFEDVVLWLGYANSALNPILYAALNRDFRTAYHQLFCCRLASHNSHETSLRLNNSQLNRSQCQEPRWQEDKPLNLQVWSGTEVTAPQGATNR

Histamine H2 receptor [20] = target: T4, Histamine H2 receptor (Cavia porcellus, UniProt P47747); experiment: Antagonist activity at guinea pig histamine H2 receptor assessed as inhibition of histamine-induced response after 30 mins; conditions: read-out: pA2 (converted)
T4 sequence (P47747 whole entry): as the sequence (P47747 whole entry, the tested form may be a part) above

Histamine H2 receptor [21] = target: T4, Histamine H2 receptor; experiment: Agonist activity at guinea pig atrium histamine H2 receptor assessed as potentiation of histamine-induced response after 30 mins; design: species or system Cardiac atrium
Histamine H1 receptor = Histamine H1 receptor (Cavia porcellus, UniProt P31389); experiment: Antagonist activity at guinea pig ileum histamine H1 receptor assessed as inhibition of histamine-induced response after 10 to 15 mins; assay type: tissue-based; conditions: read-out: pA2 (converted)
Sequence of Histamine H1 receptor (P31389 whole entry): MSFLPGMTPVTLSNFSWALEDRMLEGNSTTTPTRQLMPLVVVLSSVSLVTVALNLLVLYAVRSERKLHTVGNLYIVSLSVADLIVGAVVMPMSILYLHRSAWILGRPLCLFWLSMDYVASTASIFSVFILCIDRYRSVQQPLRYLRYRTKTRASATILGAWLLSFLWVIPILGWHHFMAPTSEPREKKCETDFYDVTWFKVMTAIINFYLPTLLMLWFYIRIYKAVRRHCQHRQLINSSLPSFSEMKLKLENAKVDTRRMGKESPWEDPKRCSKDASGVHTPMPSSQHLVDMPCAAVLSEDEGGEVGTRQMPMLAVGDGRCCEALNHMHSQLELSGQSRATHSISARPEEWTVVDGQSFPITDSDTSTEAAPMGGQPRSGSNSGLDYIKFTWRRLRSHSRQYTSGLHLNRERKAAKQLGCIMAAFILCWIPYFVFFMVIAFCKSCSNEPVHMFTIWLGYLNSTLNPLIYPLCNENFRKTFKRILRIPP

[22] = target: Histamine H2 receptor (Cavia porcellus) (UniProt P47747); experiment: Agonist activity at guinea pig histamine H2 receptor assessed as potentiation of histamine-induced response after 30 mins relative to histamine
Histamine H4 receptor [23] = target: T1, Histamine H4 receptor; experiment: Agonist activity at human recombinant histamine H4 receptor-RGS19 fusion protein expressed in Sf9 cells coexpressing Galphai2,Gbeta1gamma2 preincubated for 2 mins before [gamma32P]GTP addition measured after 20 mins by steady-state GTPase activity assay

Compound | pKb [1] | pKb (Histamine H4 receptor [2]) | Intrinsic activity (Histamine H4 receptor [3]) | pKb (Histamine H3 receptor [4]) | Intrinsic activity (Histamine H3 receptor [5]) | Intrinsic activity [7] | pKb (Histamine H3 receptor [11]) | Intrinsic activity (Histamine H2 receptor [12]) | Intrinsic activity (Histamine H3 receptor [13]) | pKb (Histamine H2 receptor [14]) | other results
CN/C(=N\C#N)NCCCCNc1ccccn1 | < 5 | < 5 | -0.11 | < 5 | -0.1 | 0.03 |  |  |  |  | pEC50 (Histamine H2 receptor [6]): inactive
CN/C(=N\C#N)NCCNc1nccc(N)n1 |  | < 5 | -0.11 | < 5 | -0.16 |  |  |  |  |  | pEC50 [8]: inactive; pEC50 (Histamine H2 receptor [6]): inactive
CC(CC(=O)/N=C(\N)NCCCc1ccc(CN(C)C)o1)c1cccs1 (centres undefined) |  |  |  |  |  |  | 5.77 | -0.12 | -0.73 | 6.51 | Intrinsic activity (Histamine H4 receptor [9]): -0.14; pKb (Histamine H4 receptor [10]): < 5
N#C/N=C(/NCCCCNc1ccccn1)NCCSc1ccccc1 | < 5 | < 5 | -0.34 | < 5 | -0.36 | -0.01 |  |  |  |  | Intrinsic activity (Histamine H2 receptor [15]): -0.13; pKb (Histamine H2 receptor [16]): < 5
N#C/N=C(/NCCCNc1ccccn1)NCCSc1ccccc1 | < 5 | < 5 | -0.1 | < 5 | -0.21 | 0.02 |  |  |  |  | Intrinsic activity (Histamine H2 receptor [15]): -0.12; pKb (Histamine H2 receptor [16]): < 5
N/C(=N\C(=O)CC(c1ccccc1)c1ccccc1)NCCCc1ncc[nH]1 | 5.07 |  |  |  |  | 0.04 | 5.47 | -0.04 | -0.33 | 6.13 | Intrinsic activity (Histamine H4 receptor [9]): -0.08; pKb (Histamine H4 receptor [10]): 5.85
CN/C(=N\C#N)NCCCNc1ccccn1 |  | < 5 | -0.13 | < 5 | -0.03 |  |  |  |  |  | pEC50 [8]: inactive; pEC50 (Histamine H2 receptor [6]): inactive
CN/C(=N\C#N)NCCCCNc1nc(N)n[nH]1 |  |  |  |  |  |  |  |  |  |  | pEC50 (Histamine H3 receptor [17]): inactive; pEC50 (Histamine H4 receptor [18]): inactive; pEC50 [8]: inactive; pEC50 (Histamine H2 receptor [6]): inactive
S=C(NC1CCCCC1)N1CCC(c2cnc[nH]2)CC1 |  |  |  |  |  |  |  |  |  |  | Intrinsic activity (Histamine H4 receptor [9]): -0.95
CN/C(=N\C#N)NCCCNc1nccc(N)n1 | < 5 |  |  | < 5 | -0.24 | 0.03 |  |  |  |  | pEC50 (Histamine H4 receptor [18]): inactive; pEC50 (Histamine H2 receptor [6]): inactive
Cc1nc(CCCCN/C(=N\C#N)NCCSc2ccccc2)c[nH]1 | < 5.3 | 6.21 | -0.24 | < 5 | -0.47 | -0.01 |  |  |  |  | Intrinsic activity (Histamine H2 receptor [15]): -0.05; EC50 (Histamine H2 receptor [6]): 16.2 µM
CN(C)Cc1ccc(CCCN/C(N)=N/C(=O)CC(c2ccccc2)c2ccccc2)o1 | 5.11 |  |  |  |  | -0.02 | 5.89 | -0.16 | -0.65 | 7.03 | Intrinsic activity (Histamine H4 receptor [9]): -0.16; pKb (Histamine H4 receptor [10]): < 5
CC(CC(=O)/N=C(\N)NCCCc1cccnc1)c1ccccc1 (centres undefined) | < 5 |  |  |  |  |  | < 5 | -0.11 | -0.01 | 5.27 | pD'2 [19]: 4.22; pKb (Histamine H4 receptor [10]): < 5; Kb (Histamine H2 receptor [20]): > 31.6 µM
N/C(=N\C(=O)CC(c1ccccc1)c1ccccc1)NCCCc1cn[nH]c1 | 5.06 |  |  |  |  | 0.06 | < 5 | 0.08 | -0.02 | 5.42 | EC50 (Histamine H2 receptor [21]): 0.363 µM; pKb (Histamine H4 receptor [10]): < 5; Kb (Histamine H1 receptor): 2.57 µM; Efficacy [22]: 41%
CN/C(=N/C#N)NCCCCc1c[nH]c(C)n1 | < 5 | < 5 | -0.23 | < 5 | -0.13 | 0.01 |  |  |  |  | Intrinsic activity (Histamine H2 receptor [15]): 0.04; pKb (Histamine H2 receptor [16]): < 5
Cc1nc(N)sc1CCCNC(=N)NC(=O)CC(C)c1ccccc1 (centres undefined) |  |  |  |  |  |  |  |  |  |  | pD'2 [19]: < 4.5; Kb (Histamine H2 receptor [20]): > 31.6 µM
N#C/N=C(\NCCNc1ccnc(N)n1)NCCSc1ccccc1 | < 5 | 5.43 | -0.83 | 5.54 | -1.03 | -0.02 |  |  |  |  | Intrinsic activity (Histamine H2 receptor [15]): -0.07; pKb (Histamine H2 receptor [16]): < 5
CC(CC(=O)/N=C(\N)NCCCc1c[nH]cn1)c1ccccc1 (centres undefined) |  |  |  |  |  |  |  | 0.87 | 0.24 |  | Intrinsic activity (Histamine H4 receptor [9]): 0.84; Efficacy [22]: 99%
CC(CC(=O)/N=C(\N)NCCCc1ncc[nH]1)c1cccs1 (centres undefined) |  |  |  |  |  |  | 5.35 | 0.04 | -0.46 | 5.26 | Intrinsic activity (Histamine H4 receptor [9]): 0.5; EC50 (Histamine H4 receptor [23]): 0.776 µM
CN/C(=N/C#N)NCCCCc1cnn[nH]1 |  |  |  |  |  |  |  |  |  |  | pEC50 (Histamine H3 receptor [17]): inactive; pEC50 (Histamine H4 receptor [18]): inactive; pEC50 [8]: inactive; pEC50 (Histamine H2 receptor [6]): inactive
N/C(=N\C(=O)CC(c1ccccc1)c1ccccc1)NCCCn1ccnc1 | < 5 |  |  |  |  | 0.01 | < 5 | -0.07 | -0.07 | 5.82 | pKb (Histamine H4 receptor [10]): < 5; Kb (Histamine H1 receptor): 2.34 µM
